Measurements from patent US11739122B2, “Glycopeptide antibiotic compounds, methods for producing the same, and uses thereof” (Academia Sinica, priority 2019, dated 2023).
In brackets after ≈: the same amount, converted by molar mass.

Key:
MRSA ATCC 43300 = assay: MIC, broth microdilution; format: cell-based, Staphylococcus aureus; conditions: MRSA ATCC 43300
In short: (§1)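 Step one, pick colonies from 18-24 h agar plates into broth until 0.5 McFarland turbidity; step two, dilute to approximately 1×10^8 CFU mL^−1; step three, incubate at 37° C for 18-24 h and score visible growth.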

MRSA ATCC 700698 hVISA = assay: MIC, broth microdilution; format: cell-based, Staphylococcus aureus; conditions: MRSA ATCC 700698 hVISA
In short: as §1

MRSA ATCC 700787 VRSA = assay: MIC, broth microdilution; format: cell-based, Staphylococcus aureus
In short: as §1

MRSA ATCC 700789 VRSA = assay: MIC, broth microdilution; format: cell-based, Staphylococcus aureus; conditions: MRSA ATCC 700789 VRSA
In short: as §1

MRSA ATCC BAA-38 = assay: MIC, broth microdilution; format: cell-based, Staphylococcus aureus; conditions: MRSA ATCC BAA-38
In short: as §1

MRSA ATCC BAA-39 = assay: MIC, broth microdilution; format: cell-based, Staphylococcus aureus; conditions: MRSA ATCC BAA-39
In short: as §1

MRSA ATCC BAA-44 = assay: MIC, broth microdilution; format: cell-based, Staphylococcus aureus; conditions: MRSA ATCC BAA-44
In short: as §1

S. aureus ATCC 29213 = assay: MIC, broth microdilution; format: cell-based, Staphylococcus aureus; conditions: SA ATCC 29213
In short: as §1

VRE ATCC 700221 (vanA) = assay: MIC, broth microdilution; format: cell-based, enterococci; conditions: VRE ATCC 700221 (vanA)
In short: as §1

VRE ATCC 700425 (vanC) = assay: MIC, broth microdilution; format: cell-based, enterococci; conditions: VRE ATCC 700425 (vanC)
In short: as §1

VRE ATCC 700802 (vanB) = assay: MIC, broth microdilution; format: cell-based, enterococci; conditions: VRE ATCC 700802 (vanB)
In short: as §1

MRSA ATCC 700787 = assay: Minimal bactericidal concentration (MBC); format: cell-based, Staphylococcus aureus
Method: Minimal Bactericidal Concentration (MBC) Determination
The MBC test is an extension of the MIC examination. MBC was determined by performing subcultures on antibiotic-free agar from both the well where there was no visible growth at the MIC of a tested antibiotic and from the positive control well (with inoculum but without compounds). The plates were incubated at 37° C. for 18-24 hours. The MBC was taken as the lowest concentration of the test compound that results in more than 99.9% reduction of viable bacteria. If MBC was one or two dilutions above a given MIC value (MBC/MIC ratio was less than or equal to four), the antibiotic was considered bactericidal against the test organism.

[1] = tested on: VRE ATCC 700221 (vanA type); assay: Thin-section TEM, cell wall morphology; format: cell-based, enterococci; conditions: VRE ATCC700221, vanA type
Method: Thin-Section Transmission Electron Microscopy (TEM)
An overnight cultured MRSA ATCC 700787, VRE ATCC 700221 or A. baumannii ATCC 19606 was individually sub-cultured into a fresh medium. Bacteria at the exponential phase were treated with a given test compound at a concentration of 4×MIC for 1-4 hour at 37° C. and followed by wash and resuspension in PBS. Bacteria cells for the TEM analysis were prepared as follows: Cells were fixed with 2.5% glutaraldehyde for 30 minutes. After the fixation, cells were washed twice with PBS and fixed with 1% osmium tetraoxide for another 30 minutes. All the buffer was removed with distilled water. The cells were then stained with 1% uranyl acetate and dehydrated with a graded ethanol solution. Cells were embedded in resin. Finally, each sample was cut into thin slices of approximately 90 nm with a glass knife and stained with uranyl acetate. The images of bacterial morphological were recorded.
The cell wall was almost intact but interspersed with holes, where cell fluids outflew leading cells to death. In general, VRE was immune to compound 1 or 2 (>256 μgmL^−1), median sensitive to compound 14 (32 μgmL^−1), but highly sensitive to compound 28 (4 μgmL^−1). […]

CCCCCCCC(=O)N[C@H]1[C@H](O[C@@H]2c3ccc(c(Cl)c3)Oc3cc4cc(c3O)Oc3ccc(cc3Cl)C[C@H]3NC(=O)[C@H](N)c5ccc(O)c(c5)Oc5cc(O)cc(c5)[C@H](NC3=O)C(=O)N[C@H]4C(=O)N[C@H]3C(=O)N[C@@H]2C(=O)N[C@H](C(=O)O)c2cc(O)cc(O)c2-c2cc3ccc2O)O[C@H](CO)[C@@H](O)[C@@H]1O [Compound 14, r6,N-octyl-Glc Tei] gave an MIC (MRSA ATCC 43300) of 0.063 µg/mL (≈ 0.0424 µM), an MIC (MRSA ATCC 700698 hVISA) of 0.016 µg/mL (≈ 0.0108 µM) and an MIC (MRSA ATCC 700787 VRSA; MRSA ATCC 700787, Table 4) of 0.016 µg/mL (≈ 0.0108 µM). It also gave an MIC (MRSA ATCC 700787 VRSA; MRSA ATCC 700787 VRSA) of 0.016 µg/mL (≈ 0.0108 µM), an MIC (MRSA ATCC 700789 VRSA) of 0.5 µg/mL (≈ 0.336 µM) and an MIC (MRSA ATCC BAA-38) of 0.016 µg/mL (≈ 0.0108 µM). For the same compound, the MIC (MRSA ATCC BAA-39) was 0.016 µg/mL (≈ 0.0108 µM), the MIC (MRSA ATCC BAA-44) was 0.016 µg/mL (≈ 0.0108 µM) and the MIC (S. aureus ATCC 29213) was 0.016 µg/mL (≈ 0.0108 µM). It also gave an MIC (VRE ATCC 700221 (vanA)) greater than 16 µg/mL, an MIC (VRE ATCC 700425 (vanC)) of 1 µg/mL (≈ 0.673 µM) and an MIC (VRE ATCC 700802 (vanB)) of 0.5 µg/mL (≈ 0.336 µM). The MBC (MRSA ATCC 700787) was 0.063 µg/mL (≈ 0.0424 µM), the MBC/MIC (MRSA ATCC 700787) was 4 and the “sensitivity of VRE to compound (concentration)” value [1] was 32 µg/mL.
